Test results from patent US20090185973A1, “METHODS, COMPOSITIONS, UNIT DOSAGE FORMS, AND KITS FOR PHARMACOLOGIC STRESS TESTING WITH REDUCED SIDE EFFECTS” (ADENOBIO N.V., priority 2008, published 2009).
Where “and” joins values, the source holds several entries; their conditions need not be identical. Equal values may be shown once. Read-outs that look alike come from different tables or passages of the source.

Legend:
patients = format: in vivo, human; settings: for PV Max, individual patients / MV Max, individual patients / MV Min, individual patients / PV Min, individual patients: listed as DIP
guinea-pig = settings: pretreatment dipyridamole 0.025 mg (n = 5); after 14C-adenosine IV injection; mean; cited from earlier work
[1] = tested on: patients with normal coronary reserve; experiment: Priming dose effect: time to peak and return to baseline, concurrent administration (Example 4); format: in vivo, human
From the text: As a test, a low priming dose of dipyridamole was combined with the concurrent administration of the two drugs to determine whether the time to peak and the occurrence of near maximal hyperaemia could be accelerated, especially when infusion time is reduced by, for example, one minute.

[2] = tested on: patients suffering from ischemic heart disease; experiment: Transthoracic doppler echocardiography (TTDE) blood flow velocity in LAD, sequential administration (Example 1); format: in vivo, human; settings: lower doses of dipyridamole (10, 14 and 18 μg/kg)
Protocol: In the combined administration, each of the two agents was administered at a dosage lower than its clinically preferred dosage when used as a single agent for myocardial perfusion imaging. Effects were measured using noninvasive transthoracic doppler echocardiography (TTDE).
Primary efficacy end-points were peak and mean diastolic flow velocities (measured as reflecting coronary blood flow values). The secondary end-point was patient tolerance to the procedure. The protocol was designed as follows.
Forty (40) consecutive patients suffering from ischemic heart disease were enrolled. Each patient served as their own control.
[…] Total doses are between about 4-6% of the lowest single-agent total dose of dipyridamole (i.e., 0.56 mg/kg, infused over a total of 4 minutes).
This dose is half the standard single-agent dosage rate of 140 μg/kg/min.

[3] = cited from earlier work
A2a receptor = A2a receptor (Homo sapiens, UniProt P29274); settings: in vivo; cited from earlier work
A2a receptor, sequence (P29274 whole entry): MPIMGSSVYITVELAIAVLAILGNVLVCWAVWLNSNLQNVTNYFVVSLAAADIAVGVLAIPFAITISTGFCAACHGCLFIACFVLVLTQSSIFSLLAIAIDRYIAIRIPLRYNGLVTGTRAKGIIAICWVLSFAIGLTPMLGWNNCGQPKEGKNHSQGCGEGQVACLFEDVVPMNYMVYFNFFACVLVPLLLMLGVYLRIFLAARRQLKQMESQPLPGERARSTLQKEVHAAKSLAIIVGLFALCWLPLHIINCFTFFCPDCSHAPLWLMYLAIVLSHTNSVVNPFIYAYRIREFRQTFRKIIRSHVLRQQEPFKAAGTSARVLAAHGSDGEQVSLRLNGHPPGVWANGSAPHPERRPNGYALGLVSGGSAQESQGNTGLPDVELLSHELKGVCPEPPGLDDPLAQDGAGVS

[4] = DIP dose 28 μg/kg, ADE 140 μg/kg/min
[5] = DIP dose 35 μg/kg, ADE 140 μg/kg/min
[6] = DIP dose 40 μg/kg, ADE 140 μg/kg/min

**Q.** What does the source list for OCCN(CCO)c1nc(N2CCCCC2)c2nc(N(CCO)CCO)nc(N3CCCCC3)c2n1 [dipyridamole]?
**A.** PV Max, individual patient (patients; DIP dose 28 μg/kg bolus alone, ADE 140 μg/kg/min 3 min): 26 cm/sec; MV Max, individual patient (patients; [4]): 21 cm/s; MV Min, individual patient (patients; [4]): 19 cm/s; PV Min, individual patient (patients; [4]): 23 cm/sec; PV Max, individual patients (patients; DIP dose 35 μg/kg bolus alone, ADE 140 μg/kg/min 3 min): 23 cm/sec and 40 cm/sec; MV Max, individual patients (patients; [5]): 20 cm/s and 28 cm/s; MV Min, individual patients (patients; [5]): 18 cm/s and 22 cm/s; PV Min, individual patients (patients; [5]): 21 cm/sec and 30 cm/sec; PV Max, individual patients (patients; DIP dose 40 μg/kg bolus alone, ADE 140 μg/kg/min 3 min): 35 cm/sec and 40 cm/sec; MV Max, individual patients (patients; [6]): 25 cm/s and 29 cm/s; MV Min, individual patients (patients; [6]): 23 cm/s and 24 cm/s; PV Min, individual patients (patients; [6]): 33 cm/sec and 34 cm/sec; Effect on peak and mean diastolic velocities (patients; dipyridamole alone, bolus 28, 35 or 40 μg/kg): did not modify; Symptoms recorded during a follow-up of 10 minutes (patients; in vivo): No symptoms; 14C distribution, Heart (guinea-pig): 2.1 ± 1.01 percentage of ^14C administered; 14C distribution, Lungs (guinea-pig): 71.4 ± 4.9 (p < 0.05) percentage of ^14C administered; Effect of priming dose on time to peak ([1]; dipyridamole priming dose 0.05 mg, 3 patients): did not modify; Effect of priming dose on time to peak ([1]; dipyridamole priming dose 0.1 mg): did modify; Effect of priming dose on time to peak ([1]; dipyridamole priming dose 0.3 mg, 3 patients): did not perform better than 0.1 mg; Effect in preliminary dose ranging studies [2]: no effect; Solubility in saline ([3]; saline): poorly soluble; Stability in the long term ([3]; solvents at pH>4): unstable

**Q.** With Nc1nc(N/N=C/C2CCCCC2)nc2c1ncn2[C@@H]1O[C@H](CO)[C@@H](O)[C@H]1O [binodenoson] as the molecule, how does the Duration of action (A2a receptor) read?
**A.** 10 ± 6 min
